Columns and labels:
[1] = cited from earlier work
salmon lice = tested on: salmon lice; design: species or system Lepeophteirus salmonis; settings: in vivo

For `COc1cc(CNC(=O)CCCC/C=C/C(C)C)ccc1O` [capsaicin], the “solubility in ethanol and other hydrophobic solvents” value ([1]; pure capsaicin) is given as “soluble”, the solubility in water ([1]; water) is given as “not soluble” and the “effect on the lice” value (salmon lice) is given as “has an effect”. For the same compound, the “sum of the effects on lice of each agent on its own versus the combination of capsaicin and acetic acid” value (salmon lice) was “considerably lower”.

Reference: patent publication US20220030882A1, “Composition and Method to Remove Parasites From Fish and to Prevent or Treat Infestation or Infection of Parasites on Fish” (priority 2018, published 2022)
